From paper PMC11992111 (Nature Communications, 2025) come the findings set out here.

Common to all, as to type: binding
In test [1] the target is AZG1 (Arabidopsis thaliana, UniProt Q9SRK7). As to the kind of experiment: ITC at pH […].
In test [2] the target is T1, AZG2 (Arabidopsis thaliana, UniProt Q84MA8).
T1 sequence (Q84MA8 1-530): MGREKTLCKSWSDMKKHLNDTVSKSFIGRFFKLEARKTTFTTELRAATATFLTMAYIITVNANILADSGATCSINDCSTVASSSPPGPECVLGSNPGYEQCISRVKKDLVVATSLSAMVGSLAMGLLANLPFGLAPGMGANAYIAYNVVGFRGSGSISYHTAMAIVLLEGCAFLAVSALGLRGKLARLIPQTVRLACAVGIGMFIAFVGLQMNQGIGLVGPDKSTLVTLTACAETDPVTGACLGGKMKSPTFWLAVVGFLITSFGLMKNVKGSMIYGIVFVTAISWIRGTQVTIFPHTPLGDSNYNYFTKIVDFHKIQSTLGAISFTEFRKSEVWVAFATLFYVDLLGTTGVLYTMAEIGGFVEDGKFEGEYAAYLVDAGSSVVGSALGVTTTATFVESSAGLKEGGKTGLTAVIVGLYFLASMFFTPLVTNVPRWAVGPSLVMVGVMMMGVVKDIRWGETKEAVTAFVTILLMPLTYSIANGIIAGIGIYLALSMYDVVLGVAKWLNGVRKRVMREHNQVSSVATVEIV
As to the kind of experiment: ITC at pH […].

Test [3] concerns the target T1, AZG2. As to the kind of experiment: ITC. (Isothermal titration calorimetry measures the heat released or taken up as one component is titrated into another.)

In general, Kd refers to the concentration at which binding is half-saturated. Turning to `Nc1ncnc2nc[nH]c12` [adenine], the results for the Kd in test [1] and in test [2] were 0.62 ± 0.11 µM and 0.77 ± 0.09 µM, respectively.
Turning to `c1coc(CNc2ncnc3[nH]cnc23)c1` [kinetin], the Kd in test [3] was 0.71 ± 0.09 µM.
`c1ccc(CNc2ncnc3nc[nH]c23)cc1` [BA, benzyladenine] displayed a Kd in test [3] of 2.09 ± 0.47 µM.
On the same count and under the same terms, under `CC(C)=CCNc1ncnc2nc[nH]c12` [iP, N^6-(Δ^2-isopentenyl)adenine] stands 0.71 ± 0.08 µM.
